In ChEMBL document CHEMBL1240496, “Development of potent glucagon-like peptide-1 agonists with high enzyme stability via introduction of multiple lactam bridges” (J Med Chem, 2010):
Bridge positions count the residues as written; N and C are the ends. Peptide text beside a SMILES is read from it.

What was measured:
DPP4 = assay: Chemical stability of the compound assessed as half life up to 24 hrs by HPLC analysis in presence of human recombinant DPP4; format: physicochemical
[1] = biological target: T1, Glucagon-like peptide 1 receptor (Homo sapiens, UniProt P43220); assay: Activation of human GLP1 receptor expressed in HEK293 cells assessed as increase in cAMP accumulation relative to GLP1; format: functional, cell-based
NEP 24.11 = assay: Chemical stability of the compound assessed as half life up to 24 hrs by HPLC analysis in presence of human recombinant NEP 24.11; format: physicochemical
[2] = biological target: T1, Glucagon-like peptide 1 receptor; assay: Activation of human GLP1 receptor expressed in HEK293 cells assessed as increase in cAMP accumulation; format: functional, cell-based; details: read-out: EC50

T1 sequence (P43220 whole entry): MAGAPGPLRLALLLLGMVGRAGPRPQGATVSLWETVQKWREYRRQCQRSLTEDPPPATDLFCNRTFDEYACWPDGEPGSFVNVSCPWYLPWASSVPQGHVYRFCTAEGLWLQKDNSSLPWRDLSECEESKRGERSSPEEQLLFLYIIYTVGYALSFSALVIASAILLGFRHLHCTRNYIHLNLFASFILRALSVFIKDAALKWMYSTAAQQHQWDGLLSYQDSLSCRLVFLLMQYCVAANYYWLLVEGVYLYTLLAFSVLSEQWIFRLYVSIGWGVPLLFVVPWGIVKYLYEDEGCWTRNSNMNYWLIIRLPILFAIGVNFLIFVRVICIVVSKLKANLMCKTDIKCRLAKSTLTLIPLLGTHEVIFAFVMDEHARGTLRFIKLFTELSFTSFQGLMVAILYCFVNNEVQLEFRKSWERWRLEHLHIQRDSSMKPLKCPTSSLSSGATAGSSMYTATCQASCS

| Structure (SMILES) | half-life (DPP4) [h] | Activity [1] [%] | half-life (NEP 24.11) [h] | EC50 [2] [nM] |
| --- | --- | --- | --- | --- |
| CC[C@H](C)[C@H](NC(=O)[C@H](Cc1ccccc1)NC(=O)[C@H](CCC(=O)O)NC(=O)[C@H](CCCCN)NC(=O)[C@H](C)NC(=O)[C@H](C)NC(=O)[C@@H]1CCCCNC(=O)CC[C@H](NC(=O)[C@H](CO)NC(=O)[C@@H](NC(=O)[C@H](CC(=O)O)NC(=O)[C@H](CO)NC(=O)[C@@H](NC(=O)[C@H](Cc2ccccc2)NC(=O)[C@@H](NC(=O)CNC(=O)[C@H](CCC(=O)O)NC(=O)[C@H](C)NC(=O)[C@@H](N)Cc2cnc[nH]2)[C@@H](C)O)[C@@H](C)O)C(C)C)C(=O)N[C@@H](Cc2ccc(O)cc2)C(=O)N[C@@H](CC(C)C)C(=O)NCC(=O)N1)C(=O)N[C@@H](C)C(=O)N[C@@H](Cc1c[nH]c2ccccc12)C(=O)N[C@@H](CC(C)C)C(=O)N[C@H](C(=O)N[C@@H](CCCCN)C(=O)NCC(=O)N[C@@H](CCCNC(=N)N)C(N)=O)C(C)C (H-HAEGTFTSDVSEYLGKAAKEFIAWLVKGR-NH2; lactam 12-16) | 2.1 | 770 | 10 | 0.6 |
| CC[C@H](C)[C@H](NC(=O)[C@H](Cc1ccccc1)NC(=O)[C@H](CCC(=O)O)NC(=O)[C@H](CCCCN)NC(=O)[C@H](C)NC(=O)[C@H](C)NC(=O)[C@H](CCC(N)=O)NC(=O)[C@@H]1CCC(=O)NCCCC[C@H](NC(=O)[C@H](CO)NC(=O)[C@@H](NC(=O)[C@H](CC(=O)O)NC(=O)[C@H](CO)NC(=O)[C@@H](NC(=O)[C@H](Cc2ccccc2)NC(=O)[C@@H](NC(=O)CNC(=O)[C@H](CCC(=O)O)NC(=O)[C@H](C)NC(=O)[C@@H](N)Cc2cnc[nH]2)[C@@H](C)O)[C@@H](C)O)C(C)C)C(=O)N[C@@H](Cc2ccc(O)cc2)C(=O)N[C@@H](CC(C)C)C(=O)N[C@@H](CCC(=O)O)C(=O)N1)C(=O)N[C@H]1CCCCNC(=O)CC[C@@H](C(=O)NCC(=O)N[C@@H](CCCNC(=N)N)C(N)=O)NC(=O)[C@H](C(C)C)NC(=O)[C@H](CC(C)C)NC(=O)[C@H](Cc2c[nH]c3ccccc23)NC1=O (H-HAEGTFTSDVSKYLEEQAAKEFIKWLVEGR-NH2; lactam 12-16, 24-28) | 4.1 | 460 | 18 | 1 |
| CC[C@H](C)[C@H](NC(=O)[C@H](Cc1ccccc1)NC(=O)[C@H](CCC(=O)O)NC(=O)[C@@H]1CCC(=O)NCCCC[C@H](NC(=O)[C@H](CCC(=O)O)NC(=O)[C@H](CC(C)C)NC(=O)[C@H](Cc2ccc(O)cc2)NC(=O)[C@H](CO)NC(=O)[C@H](CO)NC(=O)[C@@H](NC(=O)[C@H](CC(=O)O)NC(=O)[C@H](CO)NC(=O)[C@@H](NC(=O)[C@H](Cc2ccccc2)NC(=O)[C@@H](NC(=O)CNC(=O)[C@H](CCC(=O)O)NC(=O)[C@H](C)NC(=O)[C@@H](N)Cc2cnc[nH]2)[C@@H](C)O)[C@@H](C)O)C(C)C)C(=O)N[C@@H](CCC(N)=O)C(=O)N[C@@H](C)C(=O)N[C@@H](C)C(=O)N1)C(=O)N[C@H]1CCCCNC(=O)CC[C@@H](C(=O)NCC(=O)N[C@@H](CCCNC(=N)N)C(N)=O)NC(=O)[C@H](C(C)C)NC(=O)[C@H](CC(C)C)NC(=O)[C@H](Cc2c[nH]c3ccccc23)NC1=O (H-HAEGTFTSDVSSYLEKQAAEEFIKWLVEGR-NH2; lactam 16-20, 24-28) | 7.3 | 210 | 1.2 | 2.2 |

Results, then the compound that gave them:

| half-life (DPP4) [h] | Activity [1] [%] | half-life (NEP 24.11) [h] | EC50 [2] [nM] | Structure (SMILES) |
| --- | --- | --- | --- | --- |
| 1.8 | 120 | 3.2 | 3.8 | CC[C@H](C)[C@H](NC(=O)[C@H](Cc1ccccc1)NC(=O)[C@H](CCC(=O)O)NC(=O)[C@H](CCCCN)NC(=O)[C@H](C)NC(=O)[C@H](C)NC(=O)[C@H](CCC(N)=O)NC(=O)CNC(=O)[C@@H]1CCCCNC(=O)CC[C@H](NC(=O)[C@H](CC(=O)O)NC(=O)[C@H](CO)NC(=O)[C@@H](NC(=O)[C@H](Cc2ccccc2)NC(=O)[C@@H](NC(=O)CNC(=O)[C@H](CCC(=O)O)NC(=O)[C@H](C)NC(=O)[C@@H](N)Cc2cnc[nH]2)[C@@H](C)O)[C@@H](C)O)C(=O)N[C@@H](CO)C(=O)N[C@@H](CO)C(=O)N[C@@H](Cc2ccc(O)cc2)C(=O)N1)C(=O)N[C@@H](C)C(=O)N[C@@H](Cc1c[nH]c2ccccc12)C(=O)N[C@@H](CC(C)C)C(=O)N[C@H](C(=O)N[C@@H](CCCCN)C(=O)NCC(=O)N[C@@H](CCCNC(=N)N)C(N)=O)C(C)C (H-HAEGTFTSDESSYKGQAAKEFIAWLVKGR-NH2; lactam 10-14) |
| 2.9 | 70 | 17 | 7 | CC[C@H](C)[C@H](NC(=O)[C@H](Cc1ccccc1)NC(=O)[C@H](CCC(=O)O)NC(=O)[C@H](CCCCN)NC(=O)[C@H](C)NC(=O)[C@H](C)NC(=O)[C@H](CCC(N)=O)NC(=O)CNC(=O)[C@H](CCC(=O)O)NC(=O)[C@@H]1CCC(=O)NCCCC[C@H](NC(=O)[C@H](CC(=O)O)NC(=O)[C@H](CO)NC(=O)[C@@H](NC(=O)[C@H](Cc2ccccc2)NC(=O)[C@@H](NC(=O)CNC(=O)[C@H](CCC(=O)O)NC(=O)[C@H](C)NC(=O)[C@@H](N)Cc2cnc[nH]2)[C@@H](C)O)[C@@H](C)O)C(=O)N[C@@H](CO)C(=O)N[C@@H](CO)C(=O)N[C@@H](Cc2ccc(O)cc2)C(=O)N1)C(=O)N[C@H]1CCCCNC(=O)CC[C@@H](C(=O)NCC(=O)N[C@@H](CCCNC(=N)N)C(N)=O)NC(=O)[C@H](C(C)C)NC(=O)[C@H](CC(C)C)NC(=O)[C@H](Cc2c[nH]c3ccccc23)NC1=O (H-HAEGTFTSDKSSYEEGQAAKEFIKWLVEGR-NH2; lactam 10-14, 24-28) |
| 6 | 290 | 3.5 | 1.6 | CC[C@H](C)[C@H](NC(=O)[C@H](Cc1ccccc1)NC(=O)[C@H](CCC(=O)O)NC(=O)[C@@H]1CCCCNC(=O)CC[C@H](NC(=O)[C@H](CCC(=O)O)NC(=O)[C@H](CC(C)C)NC(=O)[C@H](Cc2ccc(O)cc2)NC(=O)[C@H](CO)NC(=O)[C@H](CO)NC(=O)[C@@H](NC(=O)[C@H](CC(=O)O)NC(=O)[C@H](CO)NC(=O)[C@@H](NC(=O)[C@H](Cc2ccccc2)NC(=O)[C@@H](NC(=O)CNC(=O)[C@H](CCC(=O)O)NC(=O)[C@H](C)NC(=O)[C@@H](N)Cc2cnc[nH]2)[C@@H](C)O)[C@@H](C)O)C(C)C)C(=O)N[C@@H](CCC(N)=O)C(=O)N[C@@H](C)C(=O)N[C@@H](C)C(=O)N1)C(=O)N[C@H]1CCC(=O)NCCCC[C@@H](C(=O)NCC(=O)N[C@@H](CCCNC(=N)N)C(N)=O)NC(=O)[C@H](C(C)C)NC(=O)[C@H](CC(C)C)NC(=O)[C@H](Cc2c[nH]c3ccccc23)NC1=O (H-HAEGTFTSDVSSYLEEQAAKEFIEWLVKGR-NH2; lactam 16-20, 24-28) |
